As a reminder, the IC50 is the concentration that inhibits the measured activity by half.

This experiment has as its target T1, MAP4K1 (HPK1) (Homo sapiens, UniProt Q92918).
T1 construct: purchased Invitrogen
Description: Inhibition of MAP4K1 biochemical enzymatic activity (EZReader 2 electrophoretic mobility shift assay). As to conditions: HPK1 (Invitrogen), S6K2tide 1.5 μM, 120 min; ATP 26 μM or 1000 μM (not stated which). An excerpt: MAP4K1 (HPK1) and relevant off-target enzymatic activity was monitored using the Perkin Elmer electrophoretic mobility shift technology platform—the EZReader 2. […] Within the linear, steady-state phase of the kinase enzymatic reaction, the mixed pool of phosphorylated (product) and non-phosphorylated (substrate) peptides was passed through the microfluidic system of the PerkinElmer EZ Reader 2, under an applied electric potential difference. The presence of the phosphate group on the product peptide provided a difference in mass and charge between that of the substrate peptide, resulting in a separation of the substrate and product pools in the sample (Perrin et al. 2010). As the product and substrate peptide mixture passes the lasers within the instrument, these pools are detected (λex=488 nm, λem=568 nm) and resolved as separate peaks. The ratio between these peaks reflects the activity of the compound at that concentration, in that well, under those conditions.
Inhibitors were dissolved in 100% DMSO at a stock concentration of 10 mM. A 100×, 10-point, 4-fold serial dilution of each inhibitor was created in 100% DMSO either manually or on a Hamilton STAR liquid handler, starting at a relevant concentration, usually 1 mM. A volume of 0.130 μL of each concentration was transferred to the relevant wells of a 384-well plate (Greiner 781 201) in diplicate using a TTPLabtech Mosquito nano-litre dispenser. Using a Multidrop Combi, the remaining constituents of the kinase reaction were added to the 130 nL of dosed compound as follows (see table below for final reaction details):
Enzyme activity assays at the ^APPKM for ATP or 1 mM ATP: In each well of a 384-well plate, 0.1-15 nM of untreated enzyme was incubated in a total of 13 μL of buffer (100 mM HEPES pH 7.5, 0.015% Brij 35, 10 mM MgCl2, 1 mM DTT) with 1.5 μM fluorescent peptid and 20-1000 μM ATP, at 25° C., for 60-180 minutes in the presence or absence of a dosed concentration series of compound (1% DMSO final concentration). The kinase reactions were stopped by the addition of 70 μl of Stop buffer (100 mM HEPES pH 7.5, 0.015% Brij 35, 35 mM EDTA and 0.2% of Coating Reagent 3 (Caliper Lifesciences)). The plates were read on a Caliper EZReader 2 as described above.

T1 sequence (Q92918 whole entry): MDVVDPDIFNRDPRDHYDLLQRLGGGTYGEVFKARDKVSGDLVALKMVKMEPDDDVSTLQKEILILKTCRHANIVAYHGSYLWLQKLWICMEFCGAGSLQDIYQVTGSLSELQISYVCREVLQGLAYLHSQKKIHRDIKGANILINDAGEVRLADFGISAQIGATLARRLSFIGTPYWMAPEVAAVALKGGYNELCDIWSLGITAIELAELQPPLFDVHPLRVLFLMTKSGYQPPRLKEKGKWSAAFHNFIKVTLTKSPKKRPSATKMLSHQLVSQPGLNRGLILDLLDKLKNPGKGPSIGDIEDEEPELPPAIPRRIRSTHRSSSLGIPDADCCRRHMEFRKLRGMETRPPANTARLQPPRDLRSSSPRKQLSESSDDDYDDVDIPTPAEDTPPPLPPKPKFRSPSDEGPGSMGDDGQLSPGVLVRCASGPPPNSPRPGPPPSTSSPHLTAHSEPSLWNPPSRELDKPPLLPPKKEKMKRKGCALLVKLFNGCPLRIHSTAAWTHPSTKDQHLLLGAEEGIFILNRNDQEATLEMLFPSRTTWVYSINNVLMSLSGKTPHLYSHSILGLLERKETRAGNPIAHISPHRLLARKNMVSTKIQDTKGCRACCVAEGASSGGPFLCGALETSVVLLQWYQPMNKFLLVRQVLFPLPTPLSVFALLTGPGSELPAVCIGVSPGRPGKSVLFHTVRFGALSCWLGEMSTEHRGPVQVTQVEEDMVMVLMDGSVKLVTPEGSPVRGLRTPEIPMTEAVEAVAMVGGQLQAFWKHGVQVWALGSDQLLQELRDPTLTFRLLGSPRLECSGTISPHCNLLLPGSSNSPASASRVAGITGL

Take `COC(=O)N1CC[C@H](Oc2ncc(C(C)(C)N)c3cc(Nc4ccc5c(n4)[C@@H](C)[C@H](C)OC5=O)ncc23)C1` [Compound 35]: the half-inhibitory concentration (IC50) amounted to 0.3 nM.
As for `COC(=O)N1CC[C@@H](Oc2ncc(C(C)(C)N)c3cc(Nc4ccc5c(n4)[C@@H](C)[C@H](C)OC5=O)ncc23)C1` [Compound 36], the half-inhibitory concentration (IC50) amounted to 0.65 nM.
In the case of `CCOC(=O)N1CC(Oc2ncc(C(C)(C)N)c3cc(Nc4ccc5c(n4)[C@@H](C)[C@H](C)OC5=O)ncc23)C1` [Compound 37] it was 0.15 nM; in that of `COC(=O)N1CC(Oc2ncc(C(C)(C)N)c3cc(Nc4ccc5c(n4)[C@@H](C)C(C)(C)OC5=O)ncc23)C1` [Compound 38], 0.23 nM.
In the case of `C[C@@H]1c2nc(Nc3cc4c(C(C)(C)N)ccc(OC5CN(C(=O)C6CC6)C5)c4cn3)ccc2C(=O)OC1(C)C` [Compound 41] it was 0.1 nM; in that of `C[C@@H]1c2nc(Nc3cc4c(C(C)(C)N)cnc(NC5CN(C(=O)C6CC6)C5)c4cn3)ccc2C(=O)OC1(C)C` [Compound 42], 0.33 nM; in that of `CCC(=O)N1CC(Oc2ncc(C(C)(C)N)c3cc(Nc4ccc5c(n4)C4(CC4)C(C)(C)OC5=O)ncc23)C1` [Compound 43], 0.22 nM.
In the case of `C[C@@H]1C[C@@H]1C(=O)N1CC(Oc2ncc(C(C)(C)N)c3cc(Nc4ccc5c(n4)[C@@H](C)[C@H](C)OC5=O)ncc23)C1` [Compound 44] it was 0.12 nM.
As to `C[C@@H]1OC(=O)c2ccc(Nc3cc4c(C(C)(C)N)cnc(O[C@@H]5CN(C(=O)C6CC6)[C@H]5C)c4cn3)nc2[C@H]1C` [Compound 45], the 50% inhibitory concentration (IC50) worked out at 0.16 nM.
In the case of `C[C@@H]1OC(=O)c2ccc(Nc3cc4c(C(C)(C)N)cnc(OC5CN(C(=O)[C@@H]6C[C@@H]6C)C5)c4cn3)nc2[C@H]1C` [Compound 46] it was 0.23 nM; in that of `C[C@@H]1OC(=O)c2ccc(Nc3cc4c(C(C)(C)N)cnc(OC5CN(C(=O)[C@H]6C[C@@H]6C)C5)c4cn3)nc2[C@H]1C` [Compound 47], 0.18 nM.
Regarding `C[C@@H]1OC(=O)c2ccc(Nc3cc4c(C(C)(C)N)cnc(O[C@H]5CCN(C(=O)C6CC6)C5)c4cn3)nc2[C@H]1C` [Compound 50], the IC50 worked out at 0.32 nM.
Consider `C[C@@H]1OC(=O)c2ccc(Nc3cc4c(C(C)(C)N)cnc(O[C@@H]5CCN(C(=O)C6CC6)C5)c4cn3)nc2[C@H]1C` [Compound 51], for which the IC50 was 0.36 nM.
In the case of `C[C@@H]1OC(=O)c2ccc(Nc3cc4c(C(C)(C)N)cnc(OC5CN(C(=O)C6(C)CC6)C5)c4cn3)nc2[C@H]1C` [Compound 52] it was 0.18 nM; in that of `C[C@@H]1OC(=O)c2ccc(Nc3cc4c(C(C)(C)N)cnc(OC5CN(C(=O)C6(O)CC6)C5)c4cn3)nc2[C@H]1C` [Compound 55], 0.16 nM; in that of `CC[C@H](N)c1cnc(OC2CN(C(=O)[C@@H]3C[C@@H]3F)C2)c2cnc(Nc3ccc4c(n3)[C@@H](C)[C@H](C)OC4=O)cc12` [Compound 59], 0.24 nM.
In the case of `C[C@@H]1OC(=O)c2ccc(Nc3cc4c(C(C)(C)N)cnc(OC5CN(C(=O)C6(F)CC6)C5)c4cn3)nc2[C@H]1C` [Compound 60] it was 0.16 nM.
In the case of `COCC(=O)N1CC(Oc2ncc(C(C)(C)N)c3cc(Nc4ccc5c(n4)[C@@H](C)C(C)(C)OC5=O)ncc23)C1` [Compound 61] it was 0.21 nM; in that of `C[C@@H]1C[C@@H]1C(=O)N1CC(Oc2ncc(C(C)(C)N)c3cc(Nc4ccc5c(n4)[C@@H](C)C(C)(C)OC5=O)ncc23)C1` [Compound 64], 0.16 nM; in that of `C[C@@H]1C[C@H]1C(=O)N1CC(Oc2ncc(C(C)(C)N)c3cc(Nc4ccc5c(n4)[C@@H](C)C(C)(C)OC5=O)ncc23)C1` [Compound 66], 0.22 nM.
Regarding `C[C@@H]1c2nc(Nc3cc4c(C(C)(C)N)cnc(OC5CN(C(=O)[C@@H]6C[C@@H]6C)C5)c4cn3)ccc2C(=O)OC1(C)C` [Compound 67], the half-inhibitory concentration (IC50) was found to be 0.2 nM.
Then `C[C@@H]1c2nc(Nc3cc4c(C(C)(C)N)cnc(OC5CN(C(=O)[C@H]6C[C@@H]6C)C5)c4cn3)ccc2C(=O)OC1(C)C` [Compound 68], with 0.16 nM; and `C[C@@H]1OC(=O)c2ccc(Nc3cc4c(C(C)(C)N)cnc(OC5CN(C(=O)[C@H]6CC6(C)C)C5)c4cn3)nc2[C@H]1C` [Compound 69], with 0.14 nM; and `C[C@@H]1c2nc(Nc3cc4c(C(C)(C)N)cnc(OC5CN(C(=O)C6(C)CC6)C5)c4cn3)ccc2C(=O)OC1(C)C` [Compound 71], with 0.27 nM.
Then `C[C@@H]1OC(=O)c2ccc(Nc3cc4c(C(C)(C)N)cnc(OC5CN(C(=O)[C@H]6CCOC6)C5)c4cn3)nc2[C@H]1C` [Compound 73], with 0.32 nM.
`C[C@@H]1OC(=O)c2ccc(Nc3cc4c(C(C)(C)N)cnc(OC5CN(C(=O)[C@@H]6CCOC6)C5)c4cn3)nc2[C@H]1C` [Compound 74]: the IC50 worked out at 0.36 nM.
As for `C[C@@H]1OC(=O)c2ccc(Nc3cc4c(C(C)(C)N)cnc(OC5CN(C(=O)[C@H]6CCCO6)C5)c4cn3)nc2[C@H]1C` [Compound 75], the concentration for half-maximal inhibition (IC50) is 0.38 nM.
Consider `C[C@@H]1c2nc(Nc3cc4c(C(C)(C)N)cnc(OC5CN(C(=O)C6(O)CC6)C5)c4cn3)ccc2C(=O)OC1(C)C` [Compound 78], for which the concentration for half-maximal inhibition (IC50) is 0.43 nM.
With `COC1(C(=O)N2CC(Oc3ncc(C(C)(C)N)c4cc(Nc5ccc6c(n5)[C@@H](C)[C@H](C)OC6=O)ncc34)C2)CC1` [Compound 79], the IC50 amounted to 0.31 nM.
Turning to `C[C@@H]1OC(=O)c2ccc(Nc3cc4c(C(C)(C)N)cnc(O[C@H]5C[C@@H](C(=O)N6CC(F)C6)C5)c4cn3)nc2[C@H]1C` [Compound 84], the IC50 amounted to 0.24 nM.
In the case of `COC[C@@](C)(N)c1cnc(O[C@H]2CN(C(=O)C3CC3)[C@@H]2C)c2cnc(Nc3ccc4c(n3)[C@@H](C)[C@H](C)OC4=O)cc12` [Compound 89] it was 0.35 nM.
Then `C[C@@H]1c2nc(Nc3cc4c(C(C)(C)N)cnc(OC5CN(C(=O)[C@@H]6CCCO6)C5)c4cn3)ccc2C(=O)OC1(C)C` [Compound 90], with 0.18 nM; and `COC[C@@](C)(N)c1cnc(O[C@@H]2CN(C(=O)C3CC3)[C@H]2C)c2cnc(Nc3ccc4c(n3)[C@@H](C)[C@H](C)OC4=O)cc12` [Compound 91], with 0.31 nM.
Turning to `COC1(C(=O)N2CC(Oc3ncc(C(C)(C)N)c4cc(Nc5ccc6c(n5)[C@@H](C)C(C)(C)OC6=O)ncc34)C2)CC1` [Compound 93], the half-inhibitory concentration (IC50) worked out at 0.17 nM.
In the case of `C[C@@H]1c2nc(Nc3cc4c(C(C)(C)N)cnc(O[C@H]5C[C@@H](C(=O)N6CC(F)C6)C5)c4cn3)ccc2C(=O)OC1(C)C` [Compound 94] it was 0.14 nM; in that of `C[C@@H]1OC(=O)c2ccc(Nc3cc4c(C(C)(C)N)cnc(O[C@H]5C[C@@H](C(=O)N6CC(F)(F)C6)C5)c4cn3)nc2[C@H]1C` [Compound 98], 0.19 nM; in that of `C[C@@H]1c2nc(Nc3cc4c(C(C)(C)N)cnc(OC5CN(C(=O)C6(C(F)(F)F)CC6)C5)c4cn3)ccc2C(=O)OC1(C)C` [Compound 103], 0.24 nM.
As for `CC(=O)N1CC(Oc2ncc(C(C)(C)N)c3cc(Nc4ccc5c(n4)CCOC5=O)ncc23)C1` [Compound 108], the IC50 was determined as 2.86 nM.
In the case of `CC(=O)N1CC(Oc2ncc(C(C)(C)N)c3cc(Nc4ccc5c(n4)C(C)(C)OC5=O)ncc23)C1` [Compound 109] it was 4 nM; in that of `CC(=O)N1CC(Oc2ncc(C(C)(C)N)c3cc(Nc4ccc5c(n4)C(C)(C)COC5=O)ncc23)C1` [Compound 110], 0.62 nM; in that of `C[C@@H]1c2nc(Nc3cc4c(C(C)(C)N)ccc(OCCOC(=O)N(C)C)c4cn3)ccc2C(=O)OC1(C)C` [Compound 114], 0.07 nM.
On to `CC(=O)N1CCC[C@@H]1COc1ncc(C(C)(C)N)c2cc(Nc3ccc4c(n3)[C@@H](C)C(C)(C)OC4=O)ncc12` [Compound 116], for which the IC50 was determined as 1.13 nM.
Then `CC(=O)N1CCC[C@H]1COc1ncc(C(C)(C)N)c2cc(Nc3ccc4c(n3)[C@@H](C)C(C)(C)OC4=O)ncc12` [Compound 117], with 2.02 nM; and `COC[C@@](C)(N)c1cnc(O[C@H]2C[C@H](C(=O)N(C)C)C2)c2cnc(Nc3ccc4c(n3)[C@@H](C)[C@H](C)OC4=O)cc12` [Compound 124], with 0.26 nM.

For the origin of these results see patent US20240199648A1, “MAP4K1 INHIBITORS” (Blueprint Medicines Corporation, priority 2021, published 2024).
